Our source for the EC50 values is patent US9227919B2, “Arylalkylamine compounds as calcium sensing receptor modulators” (Lupin Limited, priority 2012, dated 2016).

For orientation: EC50 means the concentration giving half of the maximal effect.

Structures can show the parent of a compound that is named as a salt.

In the assay the target is T1, Calcium Sensing Receptor (CaSR) (Homo sapiens, UniProt P41180).
T1 construct: expressed in transfected cells
T1 sequence (P41180 20-1078): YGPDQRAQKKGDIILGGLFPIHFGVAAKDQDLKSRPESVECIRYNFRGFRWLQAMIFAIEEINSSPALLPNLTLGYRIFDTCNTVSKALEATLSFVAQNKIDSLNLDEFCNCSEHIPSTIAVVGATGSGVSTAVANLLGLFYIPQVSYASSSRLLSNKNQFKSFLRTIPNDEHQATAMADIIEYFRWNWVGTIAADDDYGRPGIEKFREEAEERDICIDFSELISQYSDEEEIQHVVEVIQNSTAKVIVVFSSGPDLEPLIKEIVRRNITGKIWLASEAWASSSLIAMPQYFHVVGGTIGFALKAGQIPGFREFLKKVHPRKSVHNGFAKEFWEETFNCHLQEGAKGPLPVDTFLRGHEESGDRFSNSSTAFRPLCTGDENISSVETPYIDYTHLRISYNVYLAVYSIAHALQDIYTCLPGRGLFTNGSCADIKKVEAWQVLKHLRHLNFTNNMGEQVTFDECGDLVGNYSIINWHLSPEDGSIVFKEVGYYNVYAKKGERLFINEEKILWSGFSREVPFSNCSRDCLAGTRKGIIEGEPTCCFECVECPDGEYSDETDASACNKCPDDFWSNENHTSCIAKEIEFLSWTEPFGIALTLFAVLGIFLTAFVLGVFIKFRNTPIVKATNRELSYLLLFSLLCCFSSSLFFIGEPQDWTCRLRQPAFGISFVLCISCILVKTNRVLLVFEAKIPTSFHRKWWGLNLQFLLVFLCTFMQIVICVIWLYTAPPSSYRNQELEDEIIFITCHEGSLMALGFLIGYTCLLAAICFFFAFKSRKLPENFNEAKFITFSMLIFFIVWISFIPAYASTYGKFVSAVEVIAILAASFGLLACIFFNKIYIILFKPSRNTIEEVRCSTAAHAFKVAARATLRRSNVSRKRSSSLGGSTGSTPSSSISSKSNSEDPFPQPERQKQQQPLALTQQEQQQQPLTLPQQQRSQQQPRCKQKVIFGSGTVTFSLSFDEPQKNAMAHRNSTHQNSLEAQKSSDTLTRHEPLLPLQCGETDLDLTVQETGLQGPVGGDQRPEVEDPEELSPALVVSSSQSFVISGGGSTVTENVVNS
Put plainly: In-vitro assay of calcimimetics through modulation of Calcium Sensing Receptor (intracellular calcium increase, FLIPR). In kind it is cell-based. Conditions: stably transfected HEK293 cells expressing hCaSR; Fluo4NW dye; 0.3 mM CaCl2; 8-point assay; read-out: EC50 Range. How it is done: Certain illustrative compounds within the scope of the invention are screened for CaSR activity according to the procedure given below. The screening of the compounds may also be carried by other methods and procedures known to skilled in the art.
In-vitro assay method of Calcimimetics through modulation of Calcium Sensing Receptor (CaSR):
The ability of the compounds to modulate Calcium sensing receptor is determined by measuring an increase in intracellular calcium [Ca^2+]i. Stably transfected HEK293 cells expressing hCaSR_pTriEx-3 hygro vector are developed. Cells are grown overnight on a 96-well plate to 80% confluency in Ham's F12 containing 20% FBS at 37° C., 5% CO2. Subsequently, cells are washed extensively with 20 mM HEPES buffer containing 126 mM […], 1 mM MgCl2 and 4 mM KCl to remove serum components that might interfere with the assay. Cells are loaded with calcium sensing Fluo4NW dye in HEPES base buffer containing 0.1% BSA and lmg/ml glucose for 30 minutes to measure changes in intracellular calcium. The activities of the compounds are measured in FLIPR using 0.3 mM CaCl2 in 20 mM HEPES base buffer. The effectiveness of the compound to modulate receptor activity is determined by calculating the EC50 responses for that compound in an 8-point assay and plotted using GraphPad Prism 5.
The compounds prepared were tested using the above assay procedure and the results obtained are given below.
Background: Calcium flux is commonly read through the fluorescence of an indicator in the cells.
Turning to `C[C@@H](NCC1Cc2ccccc2C(c2cccc(C(=O)O)c2)C1)c1cccc2ccccc12` (single isomer, unassigned) [Example 2a, hydrochloride], the EC50 is less than 20 nM.
Consider `C[C@@H](NCC1Cc2ccccc2C(c2cccc(C(=O)O)c2)C1)c1cccc2ccccc12` (single isomer, unassigned) [Example 2b, hydrochloride], for which the EC50 lay within 50 to 200 nM.
The figure for `C[C@@H](NCC1Cc2ccccc2C(c2cccc(C(=O)O)c2)C1)c1cccc2ccccc12` (single isomer, unassigned) [Example 2c, hydrochloride] is 20 to 50 nM.
As to `C[C@@H](NCC1Cc2ccccc2C(c2ccc(F)c(C(=O)O)c2)C1)c1cccc2ccccc12` (single isomer, unassigned) [Example 7a, hydrochloride], the EC50 was less than 20 nM.
To `C[C@@H](NCC1Cc2ccccc2C(c2ccc(F)c(C(=O)O)c2)C1)c1cccc2ccccc12` (single isomer, unassigned) [Example 7b, hydrochloride] belongs less than 20 nM; to `C[C@@H](NCC1Cc2ccccc2C(c2ccc(F)c(C(=O)O)c2)C1)c1cccc2ccccc12` (single isomer, unassigned) [Example 7c, hydrochloride], 20 to 50 nM; to `Cc1ccc(C2CC(CN[C@H](C)c3cccc4ccccc34)Cc3ccccc32)cc1C(=O)O` (single isomer, unassigned) [Example 8a, hydrochloride], less than 20 nM.
To `Cc1ccc(C2CC(CN[C@H](C)c3cccc4ccccc34)Cc3ccccc32)cc1C(=O)O` (single isomer, unassigned) [Example 8b, hydrochloride] belongs less than 20 nM; to `Cc1ccc(C2CC(CN[C@H](C)c3cccc4ccccc34)Cc3ccccc32)cc1C(=O)O` (single isomer, unassigned) [Example 8c, hydrochloride], 50 to 200 nM.
Consider `Cc1ccc(C2CC(CN[C@H](C)c3cccc4ccccc34)Cc3ccccc32)cc1C(=O)O` (single isomer, unassigned) [Example 8d, hydrochloride], for which the EC50 lay within 20 to 50 nM.
The figure for `Cc1cc(C(=O)O)cc(C2CC(CN[C@H](C)c3cccc4ccccc34)Cc3ccccc32)c1` (single isomer, unassigned) [Example 9b, hydrochloride] is 20 to 50 nM; for `Cc1cc(C(=O)O)cc(C2CC(CN[C@H](C)c3cccc4ccccc34)Cc3ccccc32)c1` (single isomer, unassigned) [Example 9c, hydrochloride] it is 50 to 200 nM; for `Cc1ccc(C2CC(CN[C@H](C)c3cccc4ccccc34)Cc3ccccc32)c(C)c1C(=O)O` (single isomer, unassigned) [Example 10a, hydrochloride] it is less than 20 nM.
Turning to `Cc1cc(C2C[C@H](CN[C@H](C)c3cccc4ccccc34)Cc3ccccc32)ccc1C(=O)O` (single isomer, unassigned) [Example 13a, hydrochloride], the EC50 is 20 to 50 nM.
To `Cc1cc(C2C[C@H](CN[C@H](C)c3cccc4ccccc34)Cc3ccccc32)ccc1C(=O)O` (single isomer, unassigned) [Example 13b, hydrochloride] belongs less than 20 nM; to `Cc1ccc(C(=O)O)cc1C1C[C@H](CN[C@H](C)c2cccc3ccccc23)Cc2ccccc21` (single isomer, unassigned) [Example 14a, hydrochloride], 50 to 200 nM.
As for `Cc1ccc(C(=O)O)cc1C1C[C@H](CN[C@H](C)c2cccc3ccccc23)Cc2ccccc21` (single isomer, unassigned) [Example 14b, hydrochloride], the EC50 was less than 20 nM.
Regarding `COc1cc([C@@H](C)NC[C@@H]2Cc3ccccc3C(c3ccc(C)c(C(=O)O)c3)C2)ccc1F` (single isomer, unassigned) [Example 16a, hydrochloride], the 50% effective concentration (EC50) is less than 20 nM.
To `COc1cc([C@@H](C)NC[C@@H]2Cc3ccccc3C(c3ccc(C)c(C(=O)O)c3)C2)ccc1F` (single isomer, unassigned) [Example 16b, hydrochloride] belongs 20 to 50 nM; to `Cc1ccc(C2C[C@H](CN[C@H](C)c3ccc(F)c4ccccc34)Cc3ccccc32)cc1C(=O)O` (single isomer, unassigned) [Example 19a, hydrochloride], less than 20 nM; to `Cc1ccc(C2C[C@H](CN[C@H](C)c3ccc(F)c4ccccc34)Cc3ccccc32)cc1C(=O)O` (single isomer, unassigned) [Example 19b, hydrochloride], 20 to 50 nM.
`Cc1ccc(C2C[C@H](CCN[C@H](C)c3cccc4ccccc34)Cc3ccccc32)cc1C(=O)O` (single isomer, unassigned) [Example 27a, hydrochloride]: the concentration for a half-maximal effect (EC50) is less than 20 nM.
To `Cc1ccc(C(=O)O)cc1N1CC(CN[C@H](C)c2cccc3ccccc23)Cc2ccccc21` (single isomer, unassigned) [Example 70b, hydrochloride] belongs 50 to 200 nM.
With `Cc1ccc(N2CC(CN[C@H](C)c3cccc4ccccc34)Cc3ccccc32)c(C)c1C(=O)O` (single isomer, unassigned) [Example 71a, hydrochloride], the concentration for a half-maximal effect (EC50) is less than 20 nM.
The figure for `Cc1ccc(N2CC(CN[C@H](C)c3ccc(F)c4ccccc34)Cc3ccccc32)cc1C(=O)O` (single isomer, unassigned) [Example 72b, hydrochloride] is 20 to 50 nM.
To `COc1cc([C@@H](C)NCC2Cc3ccccc3N(c3ccc(C)c(C(=O)O)c3)C2)ccc1F` (single isomer, unassigned) [Example 73a, hydrochloride] belongs less than 20 nM.
Regarding `COc1cc([C@@H](C)NCC2Cc3ccccc3N(c3ccc(C)c(C(=O)O)c3)C2)ccc1F` (single isomer, unassigned) [Example 73b, hydrochloride], the EC50 lay in the range of 50 to 200 nM.
As to `Cc1ccc(N2CC(CN[C@H](C)c3cccc4ccccc34)Cc3cc(F)ccc32)cc1C(=O)O` (single isomer, unassigned) [Example 75a, hydrochloride], the 50% effective concentration (EC50) was less than 20 nM.
The figure for `Cc1ccc(N2CC(CCN[C@H](C)c3cccc4ccccc34)Cc3ccccc32)cc1C(=O)O` (single isomer, unassigned) [Example 76b, hydrochloride] is 20 to 50 nM.
Take `Cc1ccc(N2CC(CCN[C@H](C)c3cccc4ccccc34)Cc3ccccc32)cc1OCC(=O)O` (single isomer, unassigned) [Example 77b, hydrochloride]: the EC50 is less than 20 nM.
As for `Cc1ccc(N2CC(CCCN[C@H](C)c3cccc4ccccc34)Cc3ccccc32)cc1C(=O)O` (single isomer, unassigned) [Example 78b, hydrochloride], the EC50 is less than 20 nM.
The figure for `Cc1c(C(=O)O)cccc1N1CC(CCCN[C@H](C)c2ccc(F)c3ccccc23)Cc2ccccc21` (single isomer, unassigned) [Example 79a, hydrochloride] is less than 20 nM.
To `Cc1ccc(N2CC(CCCN[C@H](C)c3cccc4ccccc34)Cc3ccccc32)cc1OCC(=O)O` (single isomer, unassigned) [Example 80b, hydrochloride] belongs 20 to 50 nM; to `COc1cc([C@@H](C)NC[C@@H]2Cc3ccccc3C(c3ccc(C)c(C(=O)O)c3C)C2)ccc1F` (stereo partly drawn) [Example 17, 3-((3S)-3-((((R)-1-(4-Fluoro-3-methoxyphenyl)ethyl)amino)methyl)-1,2,3,4-tetrahydronaphthalen-1-yl)-2,6-dimethylbenzoic acid hydrochloride], less than 20 nM.
